Measurements: US20250019657A1, “Generation of Adipocytes from Bovine Embryonic Stem Cell Lines” (Wisconsin Alumni Research Foundation, priority 2023, published 2025)

Columns and labels:
[1] = test system: bESCs; experiment: bESC growth in Medium 1 with alternative Wnt inhibitors (Medium 1a/1b) on vitronectin, feeder-free; assay type: cell-based, bovine
Experimental: 1) Wnt-inhibitors (Medium la and Medium 1b): In prior studies, mTeSR Plus medium supplemented with 20 ng/ml human FGF2 and 2.5 μM IWR1 was used for bESC cultures (Saito et al. 1992; Stice et al. 1996). […] Nat Chem Biol 11, 973-980 (2015); and Mallinger et al., Discovery of potent, orally bioavailable, small-molecule inhibitors of WNT signaling from a cell-based pathway screen.
bESC growth in Medium 1 was tested with concentrations of 1 nM, 5 nM, or 10 nM iCRT3 (Medium 1a).
In another set of experiments, bESC growth in Medium 1 was tested with concentrations of 1 nM, 5 nM, 75 nM, or 150 nM CCT251545 (Medium 1b).
In Method 1, bESC colonies growing on Vitronectin were passaged by using TrypLe. Following medium aspiration 0.5-0.8 mL of TrypLE was added to each well of 6 well plate. Cells incubated for 3.5 min at 37.2° C. Then TrypLE has been carefully removed by aspiration and 1-1.2 mL of cold (+1-+4° C.) TeSRr medium was added, cells were suspended by pipette filtered via strainer (70 mkM), counted and an aliquot of 70,000 to 100,000 cell/well for 6 wells plate was taken and cells centrifuged at 100 g for 5 minutes. The cell pellet was resuspended in 9 mL growth medium and seeded on coated by vitronectin 6-well plate.

[2] = test system: bESCs; experiment: bESC growth in mTeSR medium with DAPT and IWR-1 (Medium 3 / Method 3); assay type: cell-based, bovine
Experimental: To test whether DAPT can be used for bESC cultures, the growth of bESC was tested in mTeSR medium with different concentrations of DAPT and IWR-1. […] Addition of IWR-1 to DAPT had no effect on bESCs. (FIG. 3, Table 6; bESC Medium 3/Method 3). mTeSR with 10 μM DAPT alone supported bESC cultures for more than 7 passages.
In Method 3, bESC were cultured in bESC medium 3 composed of TeSR Plus (WiCell) supplemented with […] of gamma γ-secretase inhibitor DAPT on collagen or a vitronectin-coated 6-well plate and were passage using PBS-EDTA. Following aspiration of bESC growth media, 0.7-1.2 mL of PBS-EDTA solution was added to each well of 6 well plate. After incubation 5 to 6 min at +37° C., PBS-EDTA was carefully removed by aspiration and 1-1.2 mL of cold (+1-+4° C.) TeSR medium was added, cells were suspended by pipette filtered via strainer (70 mkM), counted and an aliquot of 100,000 to 150,000 cell/well for 6 wells plate was taken and cells were centrifuged at 100 g for 5 minutes. Cell pellets were resuspended in 9 mL growth medium and plated on a collagen or vitronectin coated 6-well plate. Cells grew for 5-7 days until they formed large colonies. PBS-EDTA solution was prepared as described above.

[3] = test system: bESCs; experiment: Matrix coating supporting expansion of bESCs in feeder-free conditions; assay type: cell-based, bovine; conditions: for bESC growth on pre-coated plate (FIG. 2): Method 1 bESCs, medium with 2.5 μM IWR-1 (bESC medium 1)
From the text: After co-culture with MEFs, bESCs were collected using TrypLE treatment and cultured in 6-well plastic plates in feeder-free conditions for expansion. […] However, collagen pre-coated plates can be used to support bESC growth in bESC medium 2.
To establish feeder-free conditions for bESCs, bESCs were collected from coculture with MEFs using TrypLE treatment and transferred into 6-well plastic plates precoated Vitronectin XF, collagen, or Matrigel®.
Vitronectin Coating Preparation: A frozen vial of Vitronectin XF (2 mL) from Stem Cell Technology (Cat #07180) was thawed and mixed with 50 mL of DPBS and distributed into 6 of 6-well plates (˜1.4 mL/well) sealed with Parafilm and kept wrapped in foil at +4° C. for not more than 2 weeks. Before use, the plate was kept at +37° C. for at least 1 hr. Immediately after aspiration excess of liquid, bESCs in culture medium were added.
Collagen Coating Preparation: Collagen (Sigma, Cat #5162-1G) was dissolved in distilled water and sterilized by filtration using 0.22 um filter. Collagen solution aliquoted into 70 μL PCR tubes and kept at −80° C. before use. For coating wells, the content of tube was transferred into 50 mL DPBS, carefully mixed, and distributed into 6 of 6 wells plate, approximately 1.3-1.4 mL/well. Plates sealed with Parafilm and kept at RT not more than 2 wecks.
Matrigel® Coating Preparation: Frozen stock (˜0.5 mL) of Matrigel® needs was thaw on ice and diluted in 50 mL of cold DPBS (+4° C.). Approximately 1.2-1.3 mL (9 μg/cm^2) of diluted Matrigel® solution was added to each well. After 1 hour incubation at +37° C. excess Matrigel® was removed and wells washed with warm DPBS.

[4] = test system: bovine embryo derived blastocysts; experiment: Generation of bESC lines from blastocysts on different coatings; assay type: cell-based; conditions: Method 1
Experimental: bESCs were generated from IVM/IVF bovine embryo derived blastocysts on 6th to 7th days post-fertilization. Briefly, bovine embryos were obtained from an outside source and cultured in TeSR Plus medium supplemented with 15% fetal bovine serum from 24 to 72 hours to get an expanded blastocyst stage. After that zona pellucida was removed by treating embryos with pronase. Embryos with stripped zona pellucida were plated on irradiated MEFs (obtained from WICell) in a 4-well IVF plate and cultured according to Method 1 or Method 2. Following expansion of inner cell mass after culture for 2-3 weeks on MEFs, cells were disaggregated by TrypLE, and bESC were generated from individual blastocysts by two Methods (Method 1 or Method 2) to maximize efficiency.
To determine if feeder-free conditions were suitable for maximizing generation of bESCs from inner cell mass, individual blastocysts were placed into culture plates according to Method 1 or Method 2 with coating conditions modified as shown in Table 1. Coating conditions using MEF feeder cells or vitronectin (feeder-free) were tested. In the first set, 11 bovine embryos were used to establish 4 bESC lines, 3 of which were differentiated and tossed after passage 5-7. Only one cell line remained undifferentiated and maintained expression of bESC pluripotency factors Oct4 and Sox2. […]

[5] = 1 nM inhibitor in Medium 1, vitronectin
[6] = feeder-free, bESC medium 1 or 2

In the case of Cn1cc(-c2ccc(-c3cncc(Cl)c3N3CCC4(CCNC4=O)CC3)cc2)cn1 [CCT251545], the “bESC growth on vitronectin” value ([1]; 1 nM inhibitor in Medium 1) is reported as “did not support bESC growth”, the “passages after which cells died” value [1, 5] is reported as 2-3 passages and the “bESC growth on vitronectin” value ([1]; 5 nM inhibitor in Medium 1) is reported as “did not support bESC growth”. The “bESC growth on vitronectin” value ([1]; 75 nM inhibitor in Medium 1) was “did not support bESC growth”, the “bESC growth with typical morphology and expression of Sox2 and Oct4” value ([1]; 150 nM inhibitor in Medium 1) was “supported bESC growth” and the “passages of supported bESC growth” value ([1]; 150 nM inhibitor in Medium 1) was “more than 7 passages”.

In the case of C[C@H](NC(=O)Cc1cc(F)cc(F)c1)C(=O)NC(C(=O)OC(C)(C)C)c1ccccc1 (some centres unmarked) [DAPT], the “growth of bESCs” value ([2]; DAPT alone at 5-10 μM in mTeSR medium) is reported as “sufficient to support growth of bESCs” and the “passages of supported bESC cultures” value ([2]; mTeSR with 10 μM DAPT alone) is reported as “more than 7 passages”.

With O=C(Nc1cccc2cccnc12)c1ccc(N2C(=O)[C@@H]3[C@H](C2=O)[C@@H]2C=C[C@H]3C2)cc1 [IWR-1] the “effect on bESCs of addition to DAPT” value ([2]; IWR-1 added to DAPT in mTeSR medium) was “no effect”.

With CCc1ccc(-c2nc(CSCC(=O)NCCc3ccccc3)c(C)o2)cc1 [iCRT3] the “bESC growth on vitronectin” value ([1]; 1 nM inhibitor in Medium 1) was “did not support bESC growth”, the “passages after which cells died” value [1, 5] was 1-2 passages and the “bESC growth on vitronectin” value ([1]; 5 nM inhibitor in Medium 1) was “did not support bESC growth”. The “passages after which cells died” value ([1]; 5 nM inhibitor in Medium 1, vitronectin) was 2-4 passages, the “bESC growth with typical morphology and expression of Sox2 and Oct4” value ([1]; 10 nM inhibitor in Medium 1) was “supported bESC growth” and the “passages of supported bESC growth” value ([1]; 10 nM inhibitor in Medium 1) was “more than 10 passages”.

For collagen, the “bESC growth on pre-coated plate (FIG. 2)” value [3] was “supports bESC cultures”, the “bESC adherence to matrix” value ([3]; bESC medium 1) was “very lightly and weak” and the “bESC colony formation and growth on matrix” value ([3]; bESC medium 2) was “able to form colonies and grow”. The “bESC morphology on matrix” value [3, 6] was “maintained a typical bESC morphology”.

With gelatin the “bESC growth on pre-coated plate (FIG. 2)” value [3] was “do not support the growth of bESCs”, the “bESC attachment to pre-coated plates” value [3, 6] was “attached” and the “bESC growth on pre-coated plates” value [3, 6] was “did not grow”.

B1: vitronectin + Cover Glass on the top: vitronectin coating with cover glass on top (protein, UniProt P04004 20-478, looked up)
Vitronectin: DQESCKGRCTEGFNVDKKCQCDELCSYYQSCCTDYTAECKPQVTRGDVFTMPEDEYTVYDDGEEKNNATVHEQVGGPSLTSDLQAQSKGNPEQTPVLKPEEEAPAPEVGASKPEGIDSRPETLHPGRPQPPAEEELCSGKPFDAFTDLKNGSLFAFRGQYCYELDEKAVRPGYPKLIRDVWGIEGPIDAAFTRINCQGKTYLFKGSQYWRFEDGVLDPDYPRNISDGFDGIPDNVDAALALPAHSYSGRERVYFFKGKQYWEYQFQHQPSQEECEGSSLSAVFEHFAMMQRDSWEDIFELLFWGRTSAGTRQPQFISRDWHGVPGQVDAAMAGRIYISGMAPRPSLAKKQRFRHRNRKGYRSQRGHSRGRNQNSRRPSRATWLSLFSSEESNLGANNYDDYRMDWLVPATCEPIQSVFFFSGDKYYRVNLRTRRVDTVDPPYPRSIAQYWLGCPAPGHL
B1 was tested, and the “Number of bESC lines generated” value [4] was 0.
